Data taken from patent US11826399B2, “Chlorotoxin agents and uses thereof” (Eisai Inc., priority 2017, dated 2023).
Several values for one entry are separate records, joined by “and”; a condition that tells them apart may be missing. Identical values can stand only once.

Assay: Plasma and tissue distribution of Cryptophycin Payload and Cryptophycin Metabolite 1 after Cryptophycin Payload alone or with CTX in PC-3 xenograft nude mice (LC-MS/MS)
Format: in vivo, mouse
Method: For the present experiment, materials, methods, drugs and model were as described in Example 21. […] Following intravenous administration, whole blood samples were collected at predetermined time points via cardiac puncture (n=3 mice per time point). Blood samples were centrifuged to obtain plasma and subsequently stored at […] or lower pending analysis. Additionally, at each time point, kidney, liver, small intestine, brain, heart, and tumor were harvested by removing entire specimen from surrounding tissues (only a portion of liver and small intestine were removed). After removal, tissues were rinsed with normal saline solution (contents of small intestine were emptied) and blotted dry with clean adsorptive tissue. Once dried, the specimens were weighed and stored at −20° C. or lower pending analysis. […] Pharmacokinetic (PK) parameters were calculated. Mean plasma and tissue concentrations were used to calculate mean PK parameters. Skin and skeletal muscle which were not assessed due to difficulty of homogenization.
Vehicle for single dose group was 10% ethanol, 5% Tween 80, 85% saline. Vehicle for combination treatment was 5% ethanol, 2.5% Tween 80, 92.5% saline.

[1] = Brain, Payload 0.4 mg/kg + CTX 16 mg/kg IV
[2] = Brain, Payload 0.4 mg/kg IV alone
[3] = Heart, Payload 0.4 mg/kg + CTX 16 mg/kg IV
[4] = Heart, Payload 0.4 mg/kg IV alone
[5] = Kidney, Payload 0.4 mg/kg + CTX 16 mg/kg IV
[6] = Kidney, Payload 0.4 mg/kg IV alone
[7] = Liver, Payload 0.4 mg/kg + CTX 16 mg/kg IV
[8] = Liver, Payload 0.4 mg/kg IV alone
[9] = Payload 0.4 mg/kg + CTX 16 mg/kg IV, 0.083 h
[10] = Payload 0.4 mg/kg + CTX 16 mg/kg IV, 0.5 h
[11] = Payload 0.4 mg/kg + CTX 16 mg/kg IV, 1 h
[12] = Payload 0.4 mg/kg + CTX 16 mg/kg IV, 2 h
[13] = Payload 0.4 mg/kg + CTX 16 mg/kg IV, 6 h
[14] = Payload 0.4 mg/kg + CTX 16 mg/kg IV, 24 h
[15] = Payload 0.4 mg/kg IV alone, 0.083 h
[16] = Payload 0.4 mg/kg IV alone, 0.5 h
[17] = Payload 0.4 mg/kg IV alone, 1 h
[18] = Payload 0.4 mg/kg IV alone, 2 h
[19] = Payload 0.4 mg/kg IV alone, 6 h
[20] = Payload 0.4 mg/kg IV alone, 24 h
[21] = Plasma, Payload 0.4 mg/kg + CTX 16 mg/kg IV
[22] = Plasma, Payload 0.4 mg/kg IV alone
[23] = Small Intestine, Payload 0.4 mg/kg + CTX 16 mg/kg IV
[24] = Small Intestine, Payload 0.4 mg/kg IV alone
[25] = Tumor, Payload 0.4 mg/kg + CTX 16 mg/kg IV
[26] = Tumor, Payload 0.4 mg/kg IV alone

COc1ccc(CC2NC(=O)C=CCC(C(C)C3OC3c3ccc(CN4CCN(CCC(C)(C)SC)CC4)cc3)OC(=O)C(CC(C)C)NC(=O)C(C)(C)CNC2=O)cc1Cl (stereo not drawn) [Cryptophycin Metabolite 1]
AUC(0-t) of Cryptophycin Metabolite 1 [1]: 5.38 ng·h/g | tmax of Cryptophycin Metabolite 1 [1]: 2.00 h | AUC(0-t) of Cryptophycin Metabolite 1 [2]: 4.42 ng·h/g | tmax of Cryptophycin Metabolite 1 [2]: 0.08 h | AUC(0-inf) of Cryptophycin Metabolite 1 [3]: 620 ng·h/g | AUC(0-t) of Cryptophycin Metabolite 1 [3]: 616 ng·h/g | t1/2 of Cryptophycin Metabolite 1 [3]: 3.17 h | tmax of Cryptophycin Metabolite 1 [3]: 0.08 h | AUC(0-inf) of Cryptophycin Metabolite 1 [4]: 396 ng·h/g | AUC(0-t) of Cryptophycin Metabolite 1 [4]: 394 ng·h/g | t1/2 of Cryptophycin Metabolite 1 [4]: 3.06 h | tmax of Cryptophycin Metabolite 1 [4]: 0.08 h | AUC(0-t) of Cryptophycin Metabolite 1 [5]: 2720 ng·h/g | tmax of Cryptophycin Metabolite 1 [5]: 2.00 h | AUC(0-inf) of Cryptophycin Metabolite 1 [6]: 1750 ng·h/g | AUC(0-t) of Cryptophycin Metabolite 1 [6]: 1720 ng·h/g | t1/2 of Cryptophycin Metabolite 1 [6]: 3.99 h | tmax of Cryptophycin Metabolite 1 [6]: 0.50 h | AUC(0-inf) of Cryptophycin Metabolite 1 [7]: 2930 ng·h/g | AUC(0-t) of Cryptophycin Metabolite 1 [7]: 2900 ng·h/g | t1/2 of Cryptophycin Metabolite 1 [7]: 4.04 h | tmax of Cryptophycin Metabolite 1 [7]: 0.08 h | AUC(0-inf) of Cryptophycin Metabolite 1 [8]: 1870 ng·h/g | AUC(0-t) of Cryptophycin Metabolite 1 [8]: 1820 ng·h/g | t1/2 of Cryptophycin Metabolite 1 [8]: 4.77 h | tmax of Cryptophycin Metabolite 1 [8]: 0.08 h | Concentration of Cryptophycin Metabolite 1, Brain, Mean [9]: 0.622 ng/g | Concentration of Cryptophycin Metabolite 1, Heart, Mean [9]: 107 ng/g | Concentration of Cryptophycin Metabolite 1, Kidney, Mean [9]: 115 ng/g | Concentration of Cryptophycin Metabolite 1, Liver, Mean [9]: 1540 ng/g | Concentration of Cryptophycin Metabolite 1, Plasma, Mean [9]: 10.8 ng/mL | Concentration of Cryptophycin Metabolite 1, Small Intestine, Mean [9]: 10.4 ng/g | Concentration of Cryptophycin Metabolite 1, Tumor, Mean [9]: 2.61 ng/g | Concentration of Cryptophycin Metabolite 1, Brain, Mean [10]: 0.641 ng/g | Concentration of Cryptophycin Metabolite 1, Heart, Mean [10]: 94.9 ng/g | Concentration of Cryptophycin Metabolite 1, Kidney, Mean [10]: 252 ng/g | Concentration of Cryptophycin Metabolite 1, Liver, Mean [10]: 1000 ng/g | Concentration of Cryptophycin Metabolite 1, Plasma, Mean [10]: 8.10 ng/mL | Concentration of Cryptophycin Metabolite 1, Small Intestine, Mean [10]: 18.5 ng/g | Concentration of Cryptophycin Metabolite 1, Tumor, Mean [10]: 2.69 ng/g | Concentration of Cryptophycin Metabolite 1, Brain, Mean [11]: 1.07 ng/g | Concentration of Cryptophycin Metabolite 1, Heart, Mean [11]: 77.1 ng/g | Concentration of Cryptophycin Metabolite 1, Kidney, Mean [11]: 285 ng/g | Concentration of Cryptophycin Metabolite 1, Liver, Mean [11]: 1370 ng/g | Concentration of Cryptophycin Metabolite 1, Plasma, Mean [11]: 12.4 ng/mL | Concentration of Cryptophycin Metabolite 1, Small Intestine, Mean [11]: 26.9 ng/g | Concentration of Cryptophycin Metabolite 1, Tumor, Mean [11]: 3.90 ng/g | Concentration of Cryptophycin Metabolite 1, Brain, Mean [12]: 1.09 ng/g | Concentration of Cryptophycin Metabolite 1, Heart, Mean [12]: 87.9 ng/g | Concentration of Cryptophycin Metabolite 1, Kidney, Mean [12]: 370 ng/g | Concentration of Cryptophycin Metabolite 1, Liver, Mean [12]: 335 ng/g | Concentration of Cryptophycin Metabolite 1, Plasma, Mean [12]: 5.12 ng/mL | Concentration of Cryptophycin Metabolite 1, Small Intestine, Mean [12]: 21.8 ng/g | Concentration of Cryptophycin Metabolite 1, Tumor, Mean [12]: 9.66 ng/g | Concentration of Cryptophycin Metabolite 1, Brain, Mean [13]: 0.725 ng/g | Concentration of Cryptophycin Metabolite 1, Heart, Mean [13]: 43.7 ng/g | Concentration of Cryptophycin Metabolite 1, Kidney, Mean [13]: 191 ng/g | Concentration of Cryptophycin Metabolite 1, Liver, Mean [13]: 53.6 ng/g | Concentration of Cryptophycin Metabolite 1, Plasma, Mean [13]: 2.15 ng/mL | Concentration of Cryptophycin Metabolite 1, Small Intestine, Mean [13]: 14.8 ng/g | Concentration of Cryptophycin Metabolite 1, Tumor, Mean [13]: 12.2 ng/g | Concentration of Cryptophycin Metabolite 1, Brain, Mean [14]: BLQ | Concentration of Cryptophycin Metabolite 1, Heart, Mean [14]: 0.763 ng/g | Concentration of Cryptophycin Metabolite 1, Kidney, Mean [14]: 9.65 ng/g | Concentration of Cryptophycin Metabolite 1, Liver, Mean [14]: 5.15 ng/g | Concentration of Cryptophycin Metabolite 1, Plasma, Mean [14]: 0.384 ng/mL | Concentration of Cryptophycin Metabolite 1, Small Intestine, Mean [14]: 4.02 ng/g | Concentration of Cryptophycin Metabolite 1, Tumor, Mean [14]: 10.8 ng/g | Concentration of Cryptophycin Metabolite 1, Brain, Mean [15]: 1.46 ng/g | Concentration of Cryptophycin Metabolite 1, Heart, Mean [15]: 87.1 ng/g | Concentration of Cryptophycin Metabolite 1, Kidney, Mean [15]: 225 ng/g | Concentration of Cryptophycin Metabolite 1, Liver, Mean [15]: 2710 ng/g | Concentration of Cryptophycin Metabolite 1, Plasma, Mean [15]: 23.6 ng/mL | Concentration of Cryptophycin Metabolite 1, Small Intestine, Mean [15]: 22.2 ng/g | Concentration of Cryptophycin Metabolite 1, Tumor, Mean [15]: 2.36 ng/g | Concentration of Cryptophycin Metabolite 1, Brain, Mean [16]: 0.895 ng/g | Concentration of Cryptophycin Metabolite 1, Heart, Mean [16]: 80.2 ng/g | Concentration of Cryptophycin Metabolite 1, Kidney, Mean [16]: 361 ng/g | Concentration of Cryptophycin Metabolite 1, Liver, Mean [16]: 499 ng/g | Concentration of Cryptophycin Metabolite 1, Plasma, Mean [16]: 8.37 ng/mL | Concentration of Cryptophycin Metabolite 1, Small Intestine, Mean [16]: 29.7 ng/g | Concentration of Cryptophycin Metabolite 1, Tumor, Mean [16]: 3.27 ng/g | Concentration of Cryptophycin Metabolite 1, Brain, Mean [17]: 0.983 ng/g | Concentration of Cryptophycin Metabolite 1, Heart, Mean [17]: 70.3 ng/g | Concentration of Cryptophycin Metabolite 1, Kidney, Mean [17]: 294 ng/g | Concentration of Cryptophycin Metabolite 1, Liver, Mean [17]: 310 ng/g | Concentration of Cryptophycin Metabolite 1, Plasma, Mean [17]: 6.46 ng/mL | Concentration of Cryptophycin Metabolite 1, Small Intestine, Mean [17]: 24.3 ng/g | Concentration of Cryptophycin Metabolite 1, Tumor, Mean [17]: 3.41 ng/g | Concentration of Cryptophycin Metabolite 1, Brain, Mean [18]: 0.887 ng/g | Concentration of Cryptophycin Metabolite 1, Heart, Mean [18]: 52.8 ng/g | Concentration of Cryptophycin Metabolite 1, Kidney, Mean [18]: 249 ng/g | Concentration of Cryptophycin Metabolite 1, Liver, Mean [18]: 194 ng/g | Concentration of Cryptophycin Metabolite 1, Plasma, Mean [18]: 4.32 ng/mL | Concentration of Cryptophycin Metabolite 1, Small Intestine, Mean [18]: 23.1 ng/g | Concentration of Cryptophycin Metabolite 1, Tumor, Mean [18]: 4.01 ng/g | Concentration of Cryptophycin Metabolite 1, Brain, Mean [19]: 0.412 ng/g | Concentration of Cryptophycin Metabolite 1, Heart, Mean [19]: 25.4 ng/g | Concentration of Cryptophycin Metabolite 1, Kidney, Mean [19]: 91.2 ng/g | Concentration of Cryptophycin Metabolite 1, Liver, Mean [19]: 37.2 ng/g | Concentration of Cryptophycin Metabolite 1, Plasma, Mean [19]: 1.86 ng/mL | Concentration of Cryptophycin Metabolite 1, Small Intestine, Mean [19]: 26.1 ng/g | Concentration of Cryptophycin Metabolite 1, Tumor, Mean [19]: 5.33 ng/g | Concentration of Cryptophycin Metabolite 1, Brain, Mean [20]: BLQ | Concentration of Cryptophycin Metabolite 1, Heart, Mean [20]: 0.387 ng/g | Concentration of Cryptophycin Metabolite 1, Kidney, Mean [20]: 4.88 ng/g | Concentration of Cryptophycin Metabolite 1, Liver, Mean [20]: 7.89 ng/g | Concentration of Cryptophycin Metabolite 1, Plasma, Mean [20]: 0.141 ng/mL | Concentration of Cryptophycin Metabolite 1, Small Intestine, Mean [20]: 1.50 ng/g | Concentration of Cryptophycin Metabolite 1, Tumor, Mean [20]: 4.91 ng/g | AUC(0-inf) of Cryptophycin Metabolite 1 [21]: 53.2 ng·h/mL | AUC(0-t) of Cryptophycin Metabolite 1 [21]: 49.9 ng·h/mL | Cmax of Cryptophycin Metabolite 1 [21]: 12.4 ng/mL | t1/2 of Cryptophycin Metabolite 1 [21]: 6.24 h | tmax of Cryptophycin Metabolite 1 [21]: 1.0 h | AUC(0-inf) of Cryptophycin Metabolite 1 [22]: 40.7 ng·h/mL | AUC(0-t) of Cryptophycin Metabolite 1 [22]: 39.8 ng·h/mL | Cmax of Cryptophycin Metabolite 1 [22]: 23.6 ng/mL | t1/2 of Cryptophycin Metabolite 1 [22]: 4.57 h | tmax of Cryptophycin Metabolite 1 [22]: 0.083 h and 0.08 h | AUC(0-inf) of Cryptophycin Metabolite 1 [23]: 316 ng·h/g | AUC(0-t) of Cryptophycin Metabolite 1 [23]: 263 ng·h/g | t1/2 of Cryptophycin Metabolite 1 [23]: 9.18 h | tmax of Cryptophycin Metabolite 1 [23]: 1.00 h | AUC(0-inf) of Cryptophycin Metabolite 1 [24]: 314 ng·h/g | AUC(0-t) of Cryptophycin Metabolite 1 [24]: 302 ng·h/g | t1/2 of Cryptophycin Metabolite 1 [24]: 5.15 h | tmax of Cryptophycin Metabolite 1 [24]: 0.50 h | AUC(0-t) of Cryptophycin Metabolite 1 [25]: 259 ng·h/g | tmax of Cryptophycin Metabolite 1 [25]: 6.00 h | AUC(0-t) of Cryptophycin Metabolite 1 [26]: 117 ng·h/g | tmax of Cryptophycin Metabolite 1 [26]: 6.00 h
